Data reported in ChEMBL document CHEMBL3352242, “Structure-based design of substituted piperidines as a new class of highly efficacious oral direct Renin inhibitors” (ACS Med Chem Lett, 2014).

Legend:
[1] = Lipophilicity, logD of the compound at pH 6.8; assay type: physicochemical; settings: buffer
[2] = target: Pepsin A (Homo sapiens, UniProt P0DJD9); experiment: Inhibition of human recombinant pepsinogen A expressed in Escherichia coli using fluorescence-quenched Dabcyl-E-R-Nle-F-L-S-F-P-EDANS substrate by fluorimetric assay
[3] = target: T1, Gastricsin (Homo sapiens, UniProt P20142); experiment: Inhibition of human recombinant pepsinogen C expressed in Escherichia coli using fluorescence-quenched Dabcyl-E-R-Nle-F-L-S-F-P-EDANS substrate by fluorimetric assay
T1 sequence (P20142 whole entry): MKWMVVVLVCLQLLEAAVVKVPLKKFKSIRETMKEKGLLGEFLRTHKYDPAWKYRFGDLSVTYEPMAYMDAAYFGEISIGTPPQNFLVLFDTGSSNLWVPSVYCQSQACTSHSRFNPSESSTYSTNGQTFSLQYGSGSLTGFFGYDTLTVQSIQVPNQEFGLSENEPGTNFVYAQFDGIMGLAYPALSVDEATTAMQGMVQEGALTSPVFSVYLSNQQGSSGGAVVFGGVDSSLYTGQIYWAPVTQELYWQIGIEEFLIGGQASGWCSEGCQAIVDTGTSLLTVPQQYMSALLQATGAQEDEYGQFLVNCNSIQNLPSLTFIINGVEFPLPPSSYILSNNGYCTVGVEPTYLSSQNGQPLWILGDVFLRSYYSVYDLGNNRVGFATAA

[4] = target: Cathepsin D (Homo sapiens, UniProt P07339); experiment: Inhibition of human recombinant procathepsin D expressed in SF9 cells using fluorescence-quenched Ac-E-D(EDANS)-KPILFFRLG-K(Dabcyl)-E-Amid substrate by fluorimetric assay
[5] = target: T2, Cathepsin E (Homo sapiens, UniProt P14091); experiment: Inhibition of human recombinant human procathepsin E expressed in Escherichia coli using fluorescence-quenched Ac-E-D(EDANS)-KPILFFRLG-K(Dabcyl)-E-Amid substrate by fluorimetric assay
T2 sequence (P14091 whole entry): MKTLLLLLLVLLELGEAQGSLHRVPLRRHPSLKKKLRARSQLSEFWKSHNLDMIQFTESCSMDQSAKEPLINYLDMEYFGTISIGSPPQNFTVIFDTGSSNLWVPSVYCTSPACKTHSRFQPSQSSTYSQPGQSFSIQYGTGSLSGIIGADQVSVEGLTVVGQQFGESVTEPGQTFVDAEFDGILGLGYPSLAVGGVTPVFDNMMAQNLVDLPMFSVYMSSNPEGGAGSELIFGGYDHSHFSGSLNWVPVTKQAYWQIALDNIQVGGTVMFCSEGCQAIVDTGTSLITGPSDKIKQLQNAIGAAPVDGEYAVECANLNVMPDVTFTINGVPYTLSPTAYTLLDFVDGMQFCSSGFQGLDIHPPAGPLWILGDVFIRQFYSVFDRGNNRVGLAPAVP

[6] = target: Beta-secretase 1 (Homo sapiens, UniProt P56817); experiment: Inhibition of human recombinant BACE1 expressed in SF9 cells using fluorescence-quenched RE(EDANS)-EVNLDAEF-K(DABSYL)-R substrate by fluorimetric assay
[7] = target: T3, Beta-secretase 2 (Homo sapiens, UniProt Q9Y5Z0); experiment: Inhibition of human recombinant BACE2 expressed in SF9 cells using fluorescence-quenched RE(EDANS)-EVNLDAEF-K(DABSYL)-R substrate by fluorimetric assay
T3 sequence (Q9Y5Z0 whole entry): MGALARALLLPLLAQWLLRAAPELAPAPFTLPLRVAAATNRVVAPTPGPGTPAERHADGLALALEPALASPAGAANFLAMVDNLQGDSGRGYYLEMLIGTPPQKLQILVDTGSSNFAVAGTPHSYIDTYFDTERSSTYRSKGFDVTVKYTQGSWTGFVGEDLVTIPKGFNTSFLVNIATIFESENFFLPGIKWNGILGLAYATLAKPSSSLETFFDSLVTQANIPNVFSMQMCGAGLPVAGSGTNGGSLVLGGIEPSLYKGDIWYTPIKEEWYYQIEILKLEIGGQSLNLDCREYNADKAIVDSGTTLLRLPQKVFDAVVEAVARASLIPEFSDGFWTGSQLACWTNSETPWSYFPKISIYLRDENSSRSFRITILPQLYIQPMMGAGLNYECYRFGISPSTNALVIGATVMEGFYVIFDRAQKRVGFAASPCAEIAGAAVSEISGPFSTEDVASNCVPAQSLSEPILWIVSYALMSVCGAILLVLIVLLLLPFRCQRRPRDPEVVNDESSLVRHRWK

[8] = target: Cytochrome P450 3A4 (Homo sapiens, UniProt P08684); experiment: Inhibition of CYP3A4 (unknown origin); assay type: ADME
[9] = target: Cytochrome P450 2C9 (Homo sapiens, UniProt P11712); experiment: Inhibition of CYP2C9 (unknown origin); assay type: ADME
[10] = target: Cytochrome P450 2D6 (Homo sapiens, UniProt P10635); experiment: Inhibition of CYP2D6 (unknown origin); assay type: ADME
[11] = test system: Salmonella typhimurium; experiment: Mutagenicity in Salmonella typhimurium in presence of liver S9 fraction by Ames test; assay type: toxicity, organism-based; settings: salmonella enterica subsp. enterica serovar typhimurium
[12] = test system: Salmonella typhimurium; experiment: Mutagenicity in Salmonella typhimurium in absence of liver S9 fraction by Ames test; assay type: toxicity, organism-based; settings: salmonella enterica subsp. enterica serovar typhimurium
[13] = target: Sodium channel protein type 5 subunit alpha (Homo sapiens, UniProt Q14524); experiment: Inhibition of Nav1.5 (unknown origin) by patch clamp assay
[14] = target: Sodium channel protein type 2 subunit alpha (Homo sapiens, UniProt Q99250); experiment: Inhibition of Nav1.2 (unknown origin) by patch clamp assay
[15] = Chemical stability at 80 degC; assay type: physicochemical
[16] = Solubility in water at pH 1 to 9; assay type: physicochemical
[17] = test system: Rattus norvegicus; experiment: Reduction in mean arterial pressure in human renin and human angiotensinogen double transgenic rat at 3 mg/kg, po; assay type: functional, Artery
[18] = test system: Rattus norvegicus; experiment: Reduction in mean arterial pressure in human renin and human angiotensinogen double transgenic rat at 10 mg/kg, po; assay type: functional, Artery
[19] = test system: Rattus norvegicus; experiment: Reduction in mean arterial pressure in human renin and human angiotensinogen double transgenic rat at 30 mg/kg, po; assay type: functional, Artery
[20] = test system: Rattus norvegicus; experiment: Reduction in mean arterial pressure in human renin and human angiotensinogen double transgenic rat at 100 mg/kg, po; assay type: functional, Artery
[21] = Oral bioavailability in Sprague-Dawley rat at 6 mg/kg; assay type: ADME, organism-based; settings: in vivo
[22] = Clearance in Sprague-Dawley rat at 2 mg/kg, iv; assay type: ADME, organism-based; set-up: dose 2 mg/kg, route intravenous; settings: in vivo
[23] = Volume of distribution at steady state in Sprague-Dawley rat at 2 mg/kg, iv; assay type: ADME, organism-based; set-up: dose 2 mg/kg, route intravenous; settings: in vivo, read-out: Vdss
[24] = Half life in Sprague-Dawley rat at 2 mg/kg, iv; assay type: ADME, organism-based; set-up: dose 2 mg/kg, route intravenous; settings: in vivo
[25] = test system: Rattus norvegicus; experiment: Dose normalized Cmax inSprague-Dawley rat at 6 mg/kg, po; assay type: ADME, organism-based, Sprague-Dawley; set-up: dose 6 mg/kg, route oral; settings: in vivo
[26] = test system: Rattus norvegicus; experiment: Dose normalized AUC (infinity) in Sprague-Dawley rat at 6 mg/kg, po; assay type: ADME, organism-based; set-up: dose 6 mg/kg, route oral; settings: in vivo
[27] = test system: Rattus norvegicus; experiment: Reduction in mean arterial pressure in human renin and human angiotensinogen double transgenic rat at 1 mg/kg, po; assay type: functional, Artery

Sequence of Cathepsin D (P07339 65-162 limits assumed): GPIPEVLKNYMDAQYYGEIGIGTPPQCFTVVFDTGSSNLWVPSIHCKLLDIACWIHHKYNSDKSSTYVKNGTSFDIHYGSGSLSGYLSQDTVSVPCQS
Sequence of Cathepsin D (P07339 169-412 limits assumed): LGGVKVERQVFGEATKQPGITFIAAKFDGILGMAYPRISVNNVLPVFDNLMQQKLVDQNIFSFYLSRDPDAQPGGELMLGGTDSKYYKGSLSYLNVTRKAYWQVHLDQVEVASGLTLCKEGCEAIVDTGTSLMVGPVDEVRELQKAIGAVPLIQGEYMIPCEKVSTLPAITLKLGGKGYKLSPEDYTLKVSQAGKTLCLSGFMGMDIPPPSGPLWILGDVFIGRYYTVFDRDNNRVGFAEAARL
Sequence of Beta-secretase 1 (P56817 whole entry): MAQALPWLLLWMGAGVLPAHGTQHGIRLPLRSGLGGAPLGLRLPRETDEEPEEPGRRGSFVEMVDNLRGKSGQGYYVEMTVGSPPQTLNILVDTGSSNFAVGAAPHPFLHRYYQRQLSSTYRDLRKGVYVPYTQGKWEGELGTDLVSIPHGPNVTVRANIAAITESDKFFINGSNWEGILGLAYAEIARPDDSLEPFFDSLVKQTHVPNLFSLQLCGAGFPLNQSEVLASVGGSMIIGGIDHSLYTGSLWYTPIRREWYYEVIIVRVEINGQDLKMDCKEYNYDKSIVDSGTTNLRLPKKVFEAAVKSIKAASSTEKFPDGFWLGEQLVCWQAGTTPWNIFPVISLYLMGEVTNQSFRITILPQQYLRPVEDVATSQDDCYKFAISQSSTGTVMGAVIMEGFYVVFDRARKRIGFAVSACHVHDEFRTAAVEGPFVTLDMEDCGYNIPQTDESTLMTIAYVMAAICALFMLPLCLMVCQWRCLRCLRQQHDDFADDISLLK
Sequence of Pepsin A (P0DJD9 whole entry): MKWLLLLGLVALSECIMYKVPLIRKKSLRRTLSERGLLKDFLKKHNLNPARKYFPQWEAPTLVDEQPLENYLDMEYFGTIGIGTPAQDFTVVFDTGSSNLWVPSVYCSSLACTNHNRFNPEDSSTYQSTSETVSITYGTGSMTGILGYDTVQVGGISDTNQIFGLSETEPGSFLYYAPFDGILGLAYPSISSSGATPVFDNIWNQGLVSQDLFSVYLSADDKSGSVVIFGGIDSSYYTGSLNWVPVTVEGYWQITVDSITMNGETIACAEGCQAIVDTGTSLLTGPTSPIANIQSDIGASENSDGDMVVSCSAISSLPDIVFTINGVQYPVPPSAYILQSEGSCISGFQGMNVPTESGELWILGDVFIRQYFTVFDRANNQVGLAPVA
Sequence of Cytochrome P450 2D6 (P10635 whole entry): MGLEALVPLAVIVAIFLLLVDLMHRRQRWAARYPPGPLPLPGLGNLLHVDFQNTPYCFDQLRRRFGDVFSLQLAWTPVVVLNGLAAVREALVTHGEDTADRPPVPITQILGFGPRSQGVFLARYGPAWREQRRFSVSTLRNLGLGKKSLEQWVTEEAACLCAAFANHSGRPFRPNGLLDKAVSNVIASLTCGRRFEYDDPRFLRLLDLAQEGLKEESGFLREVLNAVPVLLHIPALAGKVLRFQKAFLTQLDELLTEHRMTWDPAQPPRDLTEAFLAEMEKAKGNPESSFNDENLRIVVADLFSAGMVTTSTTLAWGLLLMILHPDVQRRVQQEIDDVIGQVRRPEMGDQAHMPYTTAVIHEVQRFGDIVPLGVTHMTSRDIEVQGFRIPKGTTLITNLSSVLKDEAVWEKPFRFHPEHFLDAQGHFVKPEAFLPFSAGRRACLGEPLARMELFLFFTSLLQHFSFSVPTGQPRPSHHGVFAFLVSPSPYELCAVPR
Sequence of Sodium channel protein type 2 subunit alpha (Q99250 whole entry): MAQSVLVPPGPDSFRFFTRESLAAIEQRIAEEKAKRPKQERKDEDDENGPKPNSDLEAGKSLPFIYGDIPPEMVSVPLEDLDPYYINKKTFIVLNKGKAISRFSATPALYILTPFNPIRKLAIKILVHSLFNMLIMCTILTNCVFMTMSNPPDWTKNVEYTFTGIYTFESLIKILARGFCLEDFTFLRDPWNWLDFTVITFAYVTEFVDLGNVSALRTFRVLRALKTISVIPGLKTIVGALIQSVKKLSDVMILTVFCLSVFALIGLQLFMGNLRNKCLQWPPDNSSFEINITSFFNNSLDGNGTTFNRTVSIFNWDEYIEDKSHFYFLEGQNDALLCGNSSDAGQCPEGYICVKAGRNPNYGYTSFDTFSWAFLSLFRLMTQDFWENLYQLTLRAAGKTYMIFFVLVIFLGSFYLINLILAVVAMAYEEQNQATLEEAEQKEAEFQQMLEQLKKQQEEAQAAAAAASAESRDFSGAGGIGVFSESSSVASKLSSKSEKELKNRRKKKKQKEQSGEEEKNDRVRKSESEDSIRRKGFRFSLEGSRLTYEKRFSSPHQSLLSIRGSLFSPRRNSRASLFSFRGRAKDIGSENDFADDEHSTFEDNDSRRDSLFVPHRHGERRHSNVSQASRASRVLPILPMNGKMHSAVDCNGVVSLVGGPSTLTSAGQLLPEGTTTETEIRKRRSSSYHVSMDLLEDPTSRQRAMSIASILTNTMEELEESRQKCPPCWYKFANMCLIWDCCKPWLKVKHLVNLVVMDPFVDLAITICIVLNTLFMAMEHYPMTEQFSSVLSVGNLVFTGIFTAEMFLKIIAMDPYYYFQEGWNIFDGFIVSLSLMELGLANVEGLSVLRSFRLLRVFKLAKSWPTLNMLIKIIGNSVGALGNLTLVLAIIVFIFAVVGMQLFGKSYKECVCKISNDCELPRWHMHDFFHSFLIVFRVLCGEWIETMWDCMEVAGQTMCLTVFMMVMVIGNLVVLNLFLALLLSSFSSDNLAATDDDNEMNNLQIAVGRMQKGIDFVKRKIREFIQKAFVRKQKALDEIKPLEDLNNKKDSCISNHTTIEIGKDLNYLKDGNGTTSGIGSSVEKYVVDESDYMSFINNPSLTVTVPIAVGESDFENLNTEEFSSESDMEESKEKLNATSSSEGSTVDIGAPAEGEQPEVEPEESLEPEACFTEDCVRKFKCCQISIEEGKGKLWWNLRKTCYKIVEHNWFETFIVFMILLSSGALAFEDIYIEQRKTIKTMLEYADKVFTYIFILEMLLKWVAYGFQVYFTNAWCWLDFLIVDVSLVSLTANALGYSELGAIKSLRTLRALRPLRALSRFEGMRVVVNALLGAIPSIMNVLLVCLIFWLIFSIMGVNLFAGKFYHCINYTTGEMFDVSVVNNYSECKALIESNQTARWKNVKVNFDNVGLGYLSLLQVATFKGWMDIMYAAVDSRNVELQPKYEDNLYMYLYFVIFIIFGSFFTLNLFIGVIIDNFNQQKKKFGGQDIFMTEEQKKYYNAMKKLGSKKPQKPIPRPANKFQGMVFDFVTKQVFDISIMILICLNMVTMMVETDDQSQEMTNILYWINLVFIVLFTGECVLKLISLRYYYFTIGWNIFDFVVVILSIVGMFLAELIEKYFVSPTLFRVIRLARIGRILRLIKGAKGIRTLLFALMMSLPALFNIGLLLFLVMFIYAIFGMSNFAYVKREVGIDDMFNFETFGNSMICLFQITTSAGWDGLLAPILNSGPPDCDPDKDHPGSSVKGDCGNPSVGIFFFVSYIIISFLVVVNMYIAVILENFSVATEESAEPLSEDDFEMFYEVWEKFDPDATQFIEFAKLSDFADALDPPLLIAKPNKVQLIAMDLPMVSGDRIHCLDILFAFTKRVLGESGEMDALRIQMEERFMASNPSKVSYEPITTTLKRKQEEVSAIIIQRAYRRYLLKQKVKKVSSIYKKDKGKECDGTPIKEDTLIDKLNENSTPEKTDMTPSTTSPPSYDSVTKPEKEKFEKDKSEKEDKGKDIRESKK
Sequence of Cytochrome P450 3A4 (P08684 whole entry): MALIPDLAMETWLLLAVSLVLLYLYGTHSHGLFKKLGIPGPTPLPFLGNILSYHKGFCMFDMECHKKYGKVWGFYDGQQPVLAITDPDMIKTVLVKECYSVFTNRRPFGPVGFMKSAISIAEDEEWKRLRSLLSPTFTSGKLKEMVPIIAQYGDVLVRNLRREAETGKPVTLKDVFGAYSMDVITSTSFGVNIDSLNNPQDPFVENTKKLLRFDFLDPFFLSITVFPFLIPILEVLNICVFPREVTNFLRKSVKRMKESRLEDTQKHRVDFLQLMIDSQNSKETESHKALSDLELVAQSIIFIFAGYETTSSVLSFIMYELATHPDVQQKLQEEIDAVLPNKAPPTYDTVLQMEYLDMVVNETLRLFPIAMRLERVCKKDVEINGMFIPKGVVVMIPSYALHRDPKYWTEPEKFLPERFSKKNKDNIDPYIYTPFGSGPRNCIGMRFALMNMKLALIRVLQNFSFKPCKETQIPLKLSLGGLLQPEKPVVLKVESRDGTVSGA
Sequence of Cytochrome P450 2C9 (P11712 whole entry): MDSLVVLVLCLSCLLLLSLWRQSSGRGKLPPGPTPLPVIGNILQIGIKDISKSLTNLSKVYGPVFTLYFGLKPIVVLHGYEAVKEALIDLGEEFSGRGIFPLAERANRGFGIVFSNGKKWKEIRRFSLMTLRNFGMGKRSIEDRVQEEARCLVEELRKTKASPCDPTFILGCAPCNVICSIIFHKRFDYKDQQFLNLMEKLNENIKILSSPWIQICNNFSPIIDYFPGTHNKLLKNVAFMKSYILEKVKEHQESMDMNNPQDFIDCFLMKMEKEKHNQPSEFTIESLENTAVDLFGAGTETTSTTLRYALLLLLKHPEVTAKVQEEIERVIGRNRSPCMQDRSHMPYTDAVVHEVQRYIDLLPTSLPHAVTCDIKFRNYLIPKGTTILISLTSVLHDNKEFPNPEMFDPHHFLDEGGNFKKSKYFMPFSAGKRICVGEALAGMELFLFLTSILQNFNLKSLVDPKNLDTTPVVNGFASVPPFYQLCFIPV

CCOC[C@@H](CC(C)C)NC(=O)[C@@H]1CNC[C@H](C(=O)N(c2ccc(C(C)C)cn2)C2CC2)[C@@H]1O
logD [1]: 0.93 | IC50 [2]: > 30 µM | IC50 [3]: > 30 µM | IC50 [4]: > 30 µM | IC50 [5]: > 30 µM | IC50 [6]: > 30 µM | IC50 [7]: > 30 µM | IC50 [8]: > 30 µM | IC50 [9]: > 30 µM | IC50 [10]: > 30 µM | Activity [11]: Non-toxic | Activity [12]: Non-toxic | IC50 [13]: > 30 µM | IC50 [14]: > 30 µM | Stability [15]: 3 days | solubility [16]: > 10000 µg/mL

CCOC[C@@H](CC(C)C)NC(=O)[C@@H]1CNC[C@H](C(=O)N(c2ccc(C(C)C)cn2)C2CC2)[C@@H]1O.O=C(O)CCC(=O)O
Activity [17]: 42 mmHg | Activity [18]: 52 mmHg | Activity [19]: 63 mmHg | Activity [20]: 66 mmHg | bioavailability [21]: 61% | clearance [22]: 40 mL/min/kg | Vd [23]: 4 L/kg | half-life [24]: 6.8 h | Cmax/dose [25]: 136 nM/mg/kg | AUC/dose [26]: 552 nM·h/mg/kg | Activity [27]: 33 mmHg
